Each compound was assayed against T1, hSCN3A sodium channels (Homo sapiens, UniProt Q9NY46) (assay: hSCN3A electrophysiology, whole-cell patch-clamp or PatchXpress 7000, estimated IC-50 (Table B)). Conditions: estimated IC-50; hSCN3A cells, whole-cell patch-clamp or PatchXpress 7000; read-out: SCN3A EIC-50.
T1 construct: expressed in transfected cells
T1 sequence (Q9NY46 whole entry): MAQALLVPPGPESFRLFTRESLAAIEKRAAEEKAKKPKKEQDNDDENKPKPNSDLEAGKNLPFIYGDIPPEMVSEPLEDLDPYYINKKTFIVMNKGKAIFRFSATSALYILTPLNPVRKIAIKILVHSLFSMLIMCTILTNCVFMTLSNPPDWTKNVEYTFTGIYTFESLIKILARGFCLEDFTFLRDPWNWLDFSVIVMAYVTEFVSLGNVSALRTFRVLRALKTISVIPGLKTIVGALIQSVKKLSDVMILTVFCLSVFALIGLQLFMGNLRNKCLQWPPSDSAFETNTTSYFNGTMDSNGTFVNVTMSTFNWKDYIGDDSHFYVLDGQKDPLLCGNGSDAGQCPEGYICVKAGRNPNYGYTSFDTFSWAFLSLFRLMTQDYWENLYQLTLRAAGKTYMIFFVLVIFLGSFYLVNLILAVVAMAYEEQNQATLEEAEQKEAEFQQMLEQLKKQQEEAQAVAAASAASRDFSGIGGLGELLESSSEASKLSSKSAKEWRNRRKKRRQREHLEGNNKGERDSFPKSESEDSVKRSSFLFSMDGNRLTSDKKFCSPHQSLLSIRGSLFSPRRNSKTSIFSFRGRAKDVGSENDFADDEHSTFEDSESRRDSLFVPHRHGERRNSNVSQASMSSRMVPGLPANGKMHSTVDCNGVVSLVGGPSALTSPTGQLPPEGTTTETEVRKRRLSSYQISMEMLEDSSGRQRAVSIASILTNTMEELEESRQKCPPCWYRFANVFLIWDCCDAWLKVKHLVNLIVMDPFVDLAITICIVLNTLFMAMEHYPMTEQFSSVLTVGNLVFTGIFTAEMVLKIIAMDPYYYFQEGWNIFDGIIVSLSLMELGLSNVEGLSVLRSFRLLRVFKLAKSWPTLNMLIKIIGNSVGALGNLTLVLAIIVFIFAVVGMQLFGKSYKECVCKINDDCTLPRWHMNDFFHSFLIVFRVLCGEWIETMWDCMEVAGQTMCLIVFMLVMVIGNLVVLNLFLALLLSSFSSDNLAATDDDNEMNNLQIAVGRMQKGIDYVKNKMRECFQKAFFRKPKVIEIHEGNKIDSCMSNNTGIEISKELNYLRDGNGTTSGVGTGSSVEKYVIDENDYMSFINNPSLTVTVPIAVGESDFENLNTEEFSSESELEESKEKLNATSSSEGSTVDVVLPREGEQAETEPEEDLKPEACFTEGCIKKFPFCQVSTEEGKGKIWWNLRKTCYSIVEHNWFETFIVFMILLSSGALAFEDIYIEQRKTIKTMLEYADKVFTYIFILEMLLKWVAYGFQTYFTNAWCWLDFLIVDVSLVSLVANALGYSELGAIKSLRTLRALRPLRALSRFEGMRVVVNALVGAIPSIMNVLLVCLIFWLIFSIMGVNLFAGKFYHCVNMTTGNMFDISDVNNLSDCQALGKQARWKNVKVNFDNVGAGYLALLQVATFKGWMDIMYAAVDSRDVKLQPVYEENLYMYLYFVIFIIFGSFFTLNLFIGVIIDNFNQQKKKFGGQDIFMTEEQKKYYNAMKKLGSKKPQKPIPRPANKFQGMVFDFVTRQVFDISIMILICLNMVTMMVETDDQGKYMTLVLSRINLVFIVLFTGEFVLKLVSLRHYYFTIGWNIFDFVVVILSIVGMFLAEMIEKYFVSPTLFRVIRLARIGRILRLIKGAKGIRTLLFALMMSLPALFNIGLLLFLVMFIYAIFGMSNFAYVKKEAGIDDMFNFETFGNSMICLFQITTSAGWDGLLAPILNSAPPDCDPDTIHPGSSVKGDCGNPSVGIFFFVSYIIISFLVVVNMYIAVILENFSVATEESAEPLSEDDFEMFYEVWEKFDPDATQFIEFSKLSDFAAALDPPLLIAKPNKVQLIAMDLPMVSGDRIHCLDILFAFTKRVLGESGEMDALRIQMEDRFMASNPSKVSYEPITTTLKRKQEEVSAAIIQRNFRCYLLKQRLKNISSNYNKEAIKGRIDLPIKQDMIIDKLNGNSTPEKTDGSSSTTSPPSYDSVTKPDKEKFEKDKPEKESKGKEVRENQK
Assay type: cell-based
How it was run: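 Stably transfected HEK cells, whole-cell voltage clamp at 22-24° C, manual or PatchXpress 7000. Cells held at empirically determined inactivation V1/2; current evoked by 20 msec step to 0 mV after 8 sec prepulse to V1/2.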
O=C(NCc1cccc(C(F)(F)F)c1)c1ccc(S(=O)(=O)Nc2ncc(Cl)s2)c(Cl)c1 [Example 372, 3-Chloro-4-{[(5-chloro-1,3-thiazol-2-yl)amino]sulfonyl}-N-[3-(trifluoromethyl)benzyl] benzamide] showed an IC50 of 2260 nM. For O=C(NCc1ccc(C(F)(F)F)c(F)c1)c1ccc(S(=O)(=O)Nc2nccs2)c(F)c1 [Example 304, 3-Fluoro-N-[3-fluoro-4-(trifluoromethyl)benzyl]-4-[(1,3-thiazol-2-yl-amino)sulfonyl]benzamide], the IC50 was 70 nM. For O=C(NCc1ccc(F)c(Cl)c1)c1ccc(S(=O)(=O)Nc2ncc(Cl)s2)cc1 [Example 36, N-(3-Chloro-4-fluorobenzyl)-4-{[(5-chloro-1,3-thiazol-2-yl)amino]sulfonyl}benzamide], the IC50 was 70 nM. O=C(NCc1ccc(F)c(F)c1)c1ccc(S(=O)(=O)Nc2ncc(Cl)s2)cc1F [Example 361, 4-{[(5-Chloro-1,3-thiazol-2-yl)amino]sulfonyl}-N-(3,4-difluorobenzyl)-2-fluorobenzamide] was tested, and the IC50 was 310 nM. O=C(c1ccc(S(=O)(=O)Nc2nccs2)cc1)N1CCC[C@H]1COc1cccc(Cl)c1 [Example 384, 4-({(2S)-2-[(3-chlorophenoxy)methyl]pyrrolidin-1-yl}carbonyl)-N-1,3-thiazol-2-ylbenzenesulfonamide] was tested, and the IC50 was 350 nM. In the case of N#Cc1ccc(OC2CCCN(C(=O)c3ccc(S(=O)(=O)Nc4nccs4)cc3)C2)cc1F (stereo not drawn) [Example 193, 4-{[3-(4-Cyano-3-fluorophenoxy)piperidin-1-yl]carbonyl}-N-1,3-thiazol-2-yl-benzenesulfonamide], the IC50 is reported as 3270 nM. O=C(NCc1ccc(C(F)(F)F)cc1)c1ccc(S(=O)(=O)Nc2ncc(Cl)s2)cc1F [Example 352, 4-{[(5-Chloro-1,3-thiazol-2-yl)amino]sulfonyl}-2-fluoro-N-[4-(trifluoromethyl)benzyl]benzamide] showed an IC50 of 200 nM. Cc1cnc(NS(=O)(=O)c2ccc(C(=O)NCc3ccc(C(F)(F)F)cc3)cc2)s1 [Example 22, 4-{[(5-methyl-1,3-thiazol-2-yl)amino]sulfonyl}-N-[4-(trifluoromethyl)benzyl] benzamide] showed an IC50 of 950 nM. O=C(NC1(Cc2ccc(Cl)cc2)CC1)c1ccc(S(=O)(=O)Nc2nccs2)cc1 [Example 134, N-[1-(4-chlorobenzyl)cyclopropyl]-4-[(1,3-thiazol-2-ylamino)sulfonyl]benzamide] gave an IC50 of 2280 nM. For O=C(NCC1(c2ccc(Cl)cc2)CC1)c1ccc(S(=O)(=O)Nc2ncns2)c(F)c1 [Example 382, N-{[1-(4-chlorophenyl)cyclopropyl]methyl}-3-fluoro-4-[(1,2,4-thiadiazol-5-ylamino)sulfonyl]benzamide], the IC50 was 140 nM. O=C(NCc1ccc(C(F)(F)F)c(F)c1)c1ccc(S(=O)(=O)Nc2ncc(Cl)s2)cc1F [Example 356, 4-{[(5-Chloro-1,3-thiazol-2-yl)amino]sulfonyl}-2-fluoro-N-[3-fluoro-4-(trifluoromethyl)benzyl]benzamide] gave an IC50 of 210 nM. For O=C(NCc1ccc(OC(F)(F)F)c(F)c1)c1ccc(S(=O)(=O)Nc2ncns2)cc1Cl [Example 376, 2-Chloro-N-[3-fluoro-4-(trifluoromethoxy)benzyl]-4-[(1,2,4-thiadiazol-5-ylamino)sulfonyl] benzamide], the IC50 was 590 nM. For O=C(NCc1ccc(Cl)c(Cl)c1)c1ccc(S(=O)(=O)Nc2nccs2)c(F)c1 [Example 297, N-(3,4-dichlorobenzyl)-3-fluoro-4-[(1,3-thiazol-2-ylamino)sulfonyl]benzamide], the IC50 was 60 nM. For O=C(Nc1ccn(Cc2ccc(Cl)cc2)n1)c1ccc(S(=O)(=O)Nc2ncc(Cl)s2)c(F)c1 [Example 380, N-[1-(4-chlorobenzyl)-1H-pyrazol-3-yl]-4-{[(5-chloro-1,3-thiazol-2-yl)amino]sulfonyl}-3-fluorobenzamide], the IC50 was 170 nM. Compound O=C(c1ccc(S(=O)(=O)Nc2nccs2)cc1)N1CCO[C@H]2Cc3ccccc3[C@H]21 [Example 52, 4-[(4aR,9aS)-2,3,9,9a-tetrahydroindeno[2,1-b][1,4]oxazin-4(4aH)-ylcarbonyl]-N-1,3-thiazol-2-ylbenzenesulfonamide] has an IC50 of 2910 nM. For O=C(NCc1cccc(OC(F)(F)F)c1)c1ccc(S(=O)(=O)Nc2nccs2)cc1F [Example 335, 2-Fluoro-4-[(1,3-thiazol-2-ylamino)sulfonyl]-N-[3-(trifluoromethoxy)benzyl]benzamide], the IC50 was 200 nM. With CC(O)(CN(C(=O)c1ccc(S(=O)(=O)Nc2nccs2)cc1)C1CCCCC1)c1ccccc1 (stereo not drawn) [Example 257, N-cyclohexyl-N-(2-hydroxy-2-phenylpropyl)-4-[(1,3-thiazol-2-yl-amino)sulfonyl]benzamide] the IC50 was greater than 1000 nM. O=C(NCc1ccc(C(F)(F)F)c(F)c1)c1ccc(S(=O)(=O)Nc2ncc(Cl)s2)c(F)c1 [Example 310, 4-{[(5-Chloro-1,3-thiazol-2-yl)amino]sulfonyl}-3-fluoro-N-[3-fluoro-4-(trifluoromethyl)benzyl]benzamide] gave an IC50 of 50 nM. COc1ccc(CNC(=O)c2ccc(S(=O)(=O)Nc3nccs3)cc2)cc1C(F)(F)F [Example 412, N-[4-methoxy-3-(trifluoromethyl)benzyl]-4-[(1,3-thiazol-2-ylamino)sulfonyl] benzamide] was tested, and the IC50 was 270 nM. O=C(NCc1ccccc1SC(F)(F)F)c1ccc(S(=O)(=O)Nc2nccs2)cc1 [Example 122, 4-[(1,3-Thiazol-2-ylamino)sulfonyl]-N-{2-[(trifluoromethyl)thio]benzyl}benzamide] was tested, and the IC50 was 1300 nM. In the case of O=C(NCc1ccc(OC(F)(F)F)c(F)c1)c1ccc(S(=O)(=O)Nc2nccs2)cc1 [Example 394, N-[3-fluoro-4-(trifluoromethoxy)benzyl]-4-[(1,3-thiazol-2-ylamino)sulfonyl]benzamide], the IC50 is reported as 90 nM. For O=C(NCc1ccc(OC(F)(F)F)c(F)c1)c1ccc(S(=O)(=O)Nc2nccs2)c(F)c1 [Example 305, 3-Fluoro-N-[3-fluoro-4-(trifluoromethoxy)benzyl]-4-[(1,3-thiazol-2-ylamino)sulfonyl]benzamide], the IC50 was 60 nM. N#Cc1cc(S(=O)(=O)Nc2ncc(Cl)s2)ccc1C(=O)NCc1ccc(C(F)(F)F)cc1 [Example 347, 4-{[(5-Chloro-1,3-thiazol-2-yl)amino]sulfonyl}-2-cyano-N-[4-(trifluoromethyl)benzyl]benzamide] showed an IC50 of 1620 nM. Compound O=C(NCc1ccc(Cl)nc1)c1ccc(S(=O)(=O)Nc2nccs2)cc1 [Example 407, N-[(6-chloropyridin-3-yl)methyl]-4-[(1,3-thiazol-2-ylamino)sulfonyl] benzamide] has an IC50 of 1780 nM. For O=C(c1ccc(S(=O)(=O)Nc2nccs2)cc1)N1CCC(c2ccccc2)C1 (stereo not drawn) [Example 191, 4-[(3-Phenylpyrrolidin-1-yl)carbonyl]-N-1,3-thiazol-2-yl-benzenesulfonamide], the IC50 was 2250 nM. Work on O=C(NCc1ccc(Cl)c(C(F)(F)F)c1)c1ccc(S(=O)(=O)Nc2nccs2)cc1 [Example 395, N-[4-chloro-3-(trifluoromethyl)benzyl]-4-[(1,3-thiazol-2-ylamino)sulfonyl]benzamide] yielded an IC50 of 30 nM. O=C(NCc1ccc(F)c(F)c1)c1ccc(S(=O)(=O)Nc2ncc(Cl)s2)c(Cl)c1 [Example 371, 3-Chloro-4-{[(5-chloro-1,3-thiazol-2-yl)amino]sulfonyl}-N-(3,4-difluorobenzyl) benzamide] gave an IC50 of 1300 nM.

Source: US8741934B2, “Inhibitors of ion channels” (Pfizer Limited, priority 2007, dated 2014)
